Data taken from ChEMBL document CHEMBL1126514, “Thiopene systems. 15. Synthesis and antihypertensive activity of 7- (subsituted benzamido)-6-hydroxythieno[3,2,-b]pyrans as nwe potassium channel activitors” (1993).

Legend:
Format in all cases: functional
Rattus norvegicus [1] = assay: Maximal change in mean arterial blood pressure comparing MAP immediately prior to and up to 240 min after oral dose in rat
Rattus norvegicus [2] = assay: Maximal change in mean arterial blood pressure comparing MAP immediately prior to and up to 240 min after oral dose of 0.1 mgkg of compound in rat
Rattus norvegicus [3] = assay: Dose to produce 30% reduction in mean arterial pressure in rat when administered perorally; conditions: Artery, po
Rattus norvegicus [4] = assay: Maximal change in mean arterial blood pressure comparing MAP immediately prior to and up to 240 min after oral dose of 1 mgkg of compound in rat
Rattus norvegicus [5] = assay: Maximal change in mean arterial blood pressure comparing MAP immediately prior to and up to 240 min after oral dose of 0.3 mgkg of compound in rat

SMILES | Change MAP (Rattus norvegicus [1]) | ED30 (Rattus norvegicus [3]) | also measured
CC1(C)Oc2ccsc2[C@@H](NC(=O)c2ccccc2)[C@@H]1O | 35% |  | 
CC(=O)c1cc2c(s1)[C@@H](NC(=O)c1ccco1)[C@H](O)C(C)(C)O2 | 38% |  | 
CC(=O)c1cc2c(s1)[C@@H](NC(=O)c1ccc(F)cc1F)[C@H](O)C(C)(C)O2 | 59% |  | Change MAP (Rattus norvegicus [2]): 16%
CC1(C)Oc2cc([N+](=O)[O-])sc2[C@@H](N2CCCCC2=O)[C@@H]1O |  | 0.015 mg/kg | Change MAP (Rattus norvegicus [2]): 63%
CC(=O)c1cc2c(s1)[C@@H](NC(=O)c1ccc([N+](=O)[O-])cc1)[C@H](O)C(C)(C)O2 | 63% | 0.89 mg/kg | 
CC(=O)c1cc2c(s1)[C@@H](NC(=O)c1cccc([N+](=O)[O-])c1)[C@H](O)C(C)(C)O2 | 63% |  | Change MAP (Rattus norvegicus [4]): 17%
CC(=O)c1cc2c(s1)[C@@H](NC(=O)c1ccc(C(F)(F)F)cc1)[C@H](O)C(C)(C)O2 | 26% |  | 
CC(=O)c1cc2c(s1)[C@@H](NC(=O)c1cccnc1)[C@H](O)C(C)(C)O2 | 29% |  | 
CC(=O)c1cc2c(s1)[C@@H](NC(=O)c1cccc(Cl)c1)[C@H](O)C(C)(C)O2 | 59% |  | Change MAP (Rattus norvegicus [5]): 17%
COc1ccc(C(=O)N[C@@H]2c3sc(C(C)=O)cc3OC(C)(C)[C@H]2O)cc1 | 20% |  | 
CC(=O)c1cc2c(s1)[C@@H](NC(=O)c1ccccc1F)[C@H](O)C(C)(C)O2 | 59% |  | Change MAP (Rattus norvegicus [4]): -17%
CC(=O)c1cc2c(s1)[C@@H](NC(=O)c1ccc(C)cc1)[C@H](O)C(C)(C)O2 | 10% |  | 
CC(=O)c1cc2c(s1)[C@@H](NC(=O)c1ccc(F)cc1)[C@H](O)C(C)(C)O2 | 75% | 0.059 mg/kg | 
CC1(C)Oc2cc([N+](=O)[O-])sc2[C@@H](N2Cc3ccccc3C2=O)[C@@H]1O |  | 0.22 mg/kg | 
CC(=O)c1cc2c(s1)[C@@H](NC(=O)c1ccc(Cl)cc1)[C@H](O)C(C)(C)O2 | 60% | 0.11 mg/kg | 
CC1(C)Oc2cc([N+](=O)[O-])sc2[C@@H](NC(=O)c2ccccc2)[C@@H]1O | 38% |  | 
CC(=O)c1cc2c(s1)[C@@H](NC(=O)c1ccc(F)c(F)c1)[C@H](O)C(C)(C)O2 | 62% | 0.099 mg/kg | 
CC(=O)c1cc2c(s1)[C@@H](NC(=O)c1ccccc1)[C@H](O)C(C)(C)O2 | 55% | 0.2 mg/kg | 
CC1(C)Oc2cc([N+](=O)[O-])sc2[C@@H](NC(=O)c2ccc([N+](=O)[O-])cc2)[C@@H]1O | 29% |  | 
CC1(C)Oc2ccc(OC(F)(F)F)cc2[C@@H](N2Cc3ccccc3C2=O)[C@@H]1O [CELIKALIM] |  | 0.5 mg/kg | 
CC1(C)Oc2ccc(C#N)cc2[C@@H](N2CCCC2=O)[C@@H]1O [CROMAKALIM] | 47% | 0.19 mg/kg | 
